Test results published in paper PMC10361251, “Absorption, tissue distribution, and excretion of glycycoumarin, a major bioactive coumarin from Chinese licorice (Glycyrrhiza uralensis Fisch)” (Frontiers in Pharmacology, 2023).
Read-outs that look alike come from different tables or passages of the source.

How the values were obtained:
[1] = Biliary excretion of free and total GCM after i.v. administration; format: in vivo, rats; conditions: free GCM, i.v. 10 mg/kg; for dose excreted: Sprague-Dawley, rat, bile, iv, 10 mg/kg, read-out: Bile recovery
Protocol: Rats (n = 6) underwent bile fistula cannulation under anesthesia prior to bile sample collection. Bile samples from rats following i. v. GCM administration (10 mg/kg) were collected via cannula every 2 h over an 8 h collection period. Samples were collected from the catheter and delivered into acidified (0.1% HCl) centrifuge tubes. The rats were placed on thermostatic plates and kept under mild anesthesia throughout the experiment. The bile samples were diluted with saline and stored at −40°C until assayed.
(§1) Two aliquots of 50 μL prepared bile or urine samples were spiked with or without β-glucuronidase to determine the total or free GCM concentrations, as described above. The mixtures were incubated at 37°C for 40 min, and the mixtures were then spiked with 120 μL of ice-cold methanol containing IS to stop incubation. A 10 μL supernatant of each sample was used for the analysis.
(§2) An LC-MS/MS system comprising an Agilent 1260 HPLC system (Palo Alto, CA, United States) and an Applied Biosystems 4500 Q-Trap mass spectrometer equipped with an electrospray ionization source (Foster City, CA, United States) was used. Chromatographic separation was performed on a C18 column (100 × 4.6 mm, 3 μm, Thermo Fisher Scientific, Waltham, MA, United States) maintained at 30°C. The mobile phases comprised 0.1% (v/v) formic acid in water (A) and acetonitrile (B) at a flow rate of 0.4 mL/min. […] The total run time was 4 min. For mass spectrometry detection, the positive ion mode was used and the ion spray voltage was set at 5,500 V. The operating conditions were as follows: ion source temperature, 450°C; curtain gas, 20 psi; collision gas, medium. Ion source gases 1 and 2 were both at 60 psi. The collision energies were 37 and 42 V, and the declustering potentials for GCM and IS were 110 and 136 V, respectively. Quantification was performed by multiple reaction monitoring (MRM) of molecular ions and product ions at m/z 369.3 and 284.7 for GCM and 337.0 and 280.9 for IS (Supplementary Figure S1). Analyst® software (Version 1.6.3) was used for data acquisition and peak integration.

[2] = system: CYP2C19; set-up: method as in Li et al., 2017; Kuang et al., 2021; conditions: human liver microsomes; ref Li et al., 2017; Kuang et al., 2021; cited from earlier work
[3] = Plasma pharmacokinetics of free and total GCM after i.v. or oral administration (LC-MS/MS, with or without β-glucuronidase hydrolysis); format: in vivo, Sprague-Dawley rats
Description: Male Sprague-Dawley rats (200 ± 20 g) were obtained from SJA Laboratory Animal Co. Ltd. (Hunan, China). All animals were kept under standard conditions of light, humidity, and temperature, and were allowed free access to a standard diet and water. All animal experiments were approved by the Animal Ethics Committee of Bijie City First People’s Hospital (BY[2019]-02-198). On the day before GCM administration, rats were subjected to a minor surgical procedure. Briefly, a polyurethane catheter (0.59 mm ID, 0.94 mm OD; Skillsmodel Limited, Beijing, China) was cannulated into the right jugular vein while under anesthesia induced using an intraperitoneal dose of chloral hydrate at 350 mg/kg. After surgery, the rats were individually placed in metabolism cages to allow recovery for at least 24 h. The rats were fasted overnight with free access to water before GCM administration.
All GCM dosing drugs were freshly prepared at a concentration of 10 mg/mL prior to the experiments. Briefly, GCM was dissolved in normal saline containing 5% (v/v) Solutol HS 15. The animals were randomly divided into three groups. The i. v. administration group was treated intravenously with […] by quick injection through the cannulated catheter, and approximately 0.2 mL saline with 20 units of heparin was injected to flush the catheter and prevent blood coagulation. The oral administration group was treated with […] in a single gastric gavage dose, and the intraperitoneal injection group received 20 mg/kg GCM through intraperitoneal injection.
Approximately 0.3 mL blood samples were collected via the cannula and placed into heparinized micro centrifuge (Eppendorf) tubes at multiple time-points (0.08, 0.25, 0.50, 1, 2, 3, 4, 5, 6, 7, 8, 10, 12, and 24 h) after GCM administration. The samples were centrifuged at 3000 × g for 5 min at 4°C for plasma separation; a 0.1 mL aliquot of each separated plasma sample was harvested and stored at −40°C until assessed.
Free (parent drug) and/or total (including parent and glucuronidated metabolites) GCM concentrations in rat plasma, tissues, urine, and bile were quantitatively assayed using LC-MS/MS before and after hydrolytic treatment with β-glucuronidase.
Aliquots (100 μL) of plasma samples were divided into two equal fractions for determining the free and total GCM concentrations, as previously described ([Chang et al., 2012]). Briefly, two aliquots of 50 μL plasma were incubated at 37°C with or without β-glucuronidase at a concentration of 1,200 units for total and free GCM, respectively. After 40 min of incubation, 10 μL of IS (1,000 ng/mL) was added to the mixtures followed by extraction with ethyl acetate. After centrifugation, the clear ethyl acetate layer was transferred and concentrated using a freeze-dry concentration method at 4°C. Subsequently, the remaining material was reconstituted in 200 μL of 90% (v/v) methanol. A 10 μL aliquot of the supernatant was injected into the LC-MS/MS system for analysis.
as §2, with “Quantification was performed by multiple reaction monitoring (MRM) of molecular ions and product ions at m/z 369.3 and 284.7 for GCM and 337.0 and 280.9 for IS (Supplementary Figure S1). Analyst® software (Version 1.6.3) was used for data acquisition and peak integration.” left out

[4] = Urinary excretion of free and total GCM after i.v. administration; format: in vivo, rats; conditions: Sprague-Dawley, rat, urine, iv, 10 mg/kg, free GCM, i.v. 10 mg/kg
Protocol: Six rats were individually placed in metabolic cages and administered 10 mg/kg GCM by i. v. injection. Urine samples were collected over 24 h after administration in a urine reservoir containing 2 mL 0.1% HCl to avoid GCM degradation. Each urine reservoir was rinsed with 5 mL normal saline after collection. Every urine sample was diluted to 20 mL with normal saline and then stored at −40°C until assayed.
as §1, §2

[5] = system: CYP2C9; conditions: human liver microsomes, cited from earlier work
[6] = system: CYP1A2; set-up: method as in Li et al., 2017; Kuang et al., 2021; conditions: human liver microsomes; ref Li et al., 2017; Kuang et al., 2021; cited from earlier work
[7] = system: CYP2C8; set-up: method as in Li et al., 2017; Kuang et al., 2021; conditions: human liver microsomes; ref Li et al., 2017; Kuang et al., 2021; cited from earlier work
[8] = In vitro stability of GCM in pH buffers and gastrointestinal content solutions; format: in vitro ADME, rats; conditions: 4 h at 37°C, 0.8 μg/mL
Protocol: The gastrointestinal tract solutions were collected as described previously ([Kong et al., 2013]). Briefly, rats were fasted overnight and sacrificed; the entire stomach, small intestine, and colon of each rat were removed, and their contents were rapidly collected on ice. Each of the contents was suspended in buffer solutions at pH 1.2, 6.8, and 7.4. Following mixing and centrifugation, the protein content of the gastrointestinal tract solutions was assayed using the BCA protein assay kit from Solarbio (Beijing, China) and then adjusted to 12 mg/mL for further study.
The stability of GCM in the gastrointestinal tract, including chemical stability and enzymatic stability, was assessed using an in vitro method as described previously ([Kong et al., 2013]). Briefly, GCM was spiked into different pH (1.2, 6.8, and 7.4) buffers and gastrointestinal content solutions containing the GCM at a final concentration of 0.8 μg/mL. The solutions were then mixed and incubated at 37°C. Aliquots of 200 μL samples were collected at 0.5, 1, 2, and 4 h, and 200 μL ice-cold methanol containing 200 ng/mL IS was added to stop the incubation. After centrifugation, 10 μL of the supernatant was used for analysis. Each experiment was performed in triplicate.

[9] = system: CYP2D6; set-up: method as in Qiao et al., 2014a; conditions: ref Qiao et al., 2014a; cited from earlier work
[10] = system: CYP2B6; set-up: method as in Li et al., 2017; Kuang et al., 2021; conditions: human liver microsomes; ref Li et al., 2017; Kuang et al., 2021; cited from earlier work
[11] = Tissue distribution of GCM after intraperitoneal administration; format: in vivo; conditions: intraperitoneal 20 mg/kg, rats
Protocol: Twenty-five rats were randomly divided into five groups and administered 20 mg/kg GCM intraperitoneally. Samples of various tissues (heart, liver, spleen, lung, kidney, and brain) of a certain weight were collected from the rats at 0.5, 1, 2, 4, and 6 h following GCM administration. All tissues were then rinsed with normal saline to clean the blood, blotted with filter paper, and stored at −40°C until use. Blood samples were collected via the carotid artery at the specified time points, and plasma samples were harvested as described above.
Tissue samples were accurately weighed and homogenized in ice-cold saline (1:4, w/v) using a glass tissue homogenizer. Homogenized organs were centrifuged at 12,000 × g for 10 min to obtain clear supernatants; the supernatant was then transferred to a clean test tube kept at −40°C until assayed.
as §2

[12] = set-up: method as in Li et al., 2017; Kuang et al., 2021; conditions: human liver microsomes; ref Li et al., 2017; Kuang et al., 2021; cited from earlier work
[13] = set-up: method as in Wang et al., 2015; conditions: ref Wang et al., 2015; cited from earlier work
[14] = system: CYP1A1; set-up: method as in Kim et al., 2016; conditions: human liver microsomes; ref Kim et al., 2016; cited from earlier work
[15] = male, Sprague-Dawley, iv, free GCM, i.v. 10 mg/kg, rat plasma

COc1c(CC=C(C)C)c(O)cc2oc(=O)c(-c3ccc(O)cc3O)cc12 [GCM, Glycycoumarin]
dose excreted ([1]; 0–2 h): 0.2 ± 0.12% | dose excreted ([1]; 2–4 h): 0.08 ± 0.06% | dose excreted ([1]; 4–6 h): 0.05 ± 0.04% | Parent form excreted from bile over 0–8 h ([1]; 0–8 h): < 1 % of the delivered dose | CYP2C19 inhibition [2]: strongly inhibit | Parent GCM in plasma collected after 6 h ([3]; free GCM, i.v. 10 mg/kg): almost undetectable | CL/F ([3]; free GCM, i.v. 10 mg/kg, rats): 8.95 ± 2.0 L/h/kg | Vd, λz/F ([3]; free GCM, i.v. 10 mg/kg, rats, in L/kg): 9.25 ± 3.13 | Free GCM in plasma after 2 h ([3]; free GCM, oral 20 mg/kg): almost undetectable | AUC0-∞ of conjugated (glucuronidated) GCM relative to free GCM ([3]; i.v. 10 mg/kg, rat plasma): approximately four-times higher | AUC(0-inf) [3, 15]: 1.17 ± 0.283 µg·h/mL | AUC(0-t) [3, 15]: 1.16 ± 0.284 µg·h/mL | C0 [3, 15]: 5.69 ± 1.36 µg/mL | half-life ([3]; male, Sprague-Dawley, iv, free GCM, i.v. 10 mg/kg, rat plasma, read-out: t1/2, λz (converted)): 42.6 ± 6.6 min | dose excreted ([4]; 0–12 h, read-out: Urine recovery): 0.28 ± 0.25% | dose excreted ([4]; 0–24 h, read-out: Urinary recovery over 24 h): 0.39% | dose excreted ([4]; 12–24 h, read-out: Urine recovery): 0.11 ± 0.1% | CYP2C9 inhibition ([5]; ref Li et al., 2017, Kuang et al., 2021): strongly inhibit | CYP1A2 inhibition [6]: strongly inhibit | CYP2C8 inhibition [7]: strongly inhibit | Stability in colon content solutions [8]: unstable | Stability in small intestine content solutions [8]: unstable | Stability in stomach content solutions [8]: relatively stable | Stability in pH buffer solutions ([8]; pH 1.2, 6.8 and 7.4): relatively stable | CYP2D6 activity inhibition [9]: significantly inhibits | CYP2B6 inhibition [10]: strongly inhibit | Blood-brain barrier crossing [11]: cannot cross the blood-brain barrier | GCM in brain samples [11]: not detected | Tissue concentration rank order [11]: liver, followed by that in the spleen, lung, heart, and kidney | GCM levels in most tissues by 6 h after dosing ([11]; 6 h): undetectable levels | UGT1A19 inhibition [12]: strongly inhibit

COc1c(CC=C(C)C)c(O)cc2oc(=O)c3c4ccc(O)cc4oc3c12 [Glycyrol]
Absorption into the blood after oral administration [13]: not absorbed into the blood | CYP2C9 inhibition ([5]; ref Kim et al., 2016): competitive inhibitory effects | CYP1A1 inhibition [14]: competitive inhibitory effects
